Values quoted from earlier work as cited in patent US10864334B2, “Nasal delivery” (OptiNose AS, priority 2006, dated 2020).
Read-outs that look alike come from different tables or passages of the source.

Experiments:
[1] = in vivo
[2] = intranasal; aqueous spray versus nasal drops; systemic bio-availability

SMILES	bio-availability of the nasal spray formulation relative to the nasal drop formulation [1]	bio-availability of the nasal spray formulation relative to the nasal drop formulation [2]
NC(=O)CC[C@@H]1NC(=O)[C@H](Cc2ccccc2)NC(=O)[C@H](Cc2ccc(O)cc2)NC(=O)CCSSC[C@@H](C(=O)N2CCC[C@H]2C(=O)N[C@H](CCCN=C(N)N)C(=O)NCC(N)=O)NC(=O)[C@H](CC(N)=O)NC1=O [desmopressin]	two to three times higher	
CCC(=O)O[C@]1(C(=O)SCF)[C@H](C)C[C@H]2[C@@H]3C[C@H](F)C4=CC(=O)C=C[C@]4(C)[C@@]3(F)[C@@H](O)C[C@@]21C [fluticasone propionate]		about eight times higher
